Source: US20220257595A1, “MACITENTAN FOR USE IN TREATING PORTOPULMONARY HYPERTENSION” (ACTELION PHARMACEUTICALS LTD, priority 2019, published 2022)
“Also recorded” adds a separate entry of the source.

Tests used:
[1] = PORTICO PK substudy: steady-state plasma macitentan and ACT-132577; assay type: in vivo, human
Procedure: It was planned to enroll at least 20 patients who were on steady-state treatment with macitentan (i.e., at least 4 weeks) into the PK substudy. The substudy was conducted in consenting patients from all centers across all regions who agreed to participate. The substudy consisted of the following periods:
PK assessments period: PK assessments were to be performed after OL study treatment had been taken for at least 4 weeks. The substudy comprised two visits (Day 1: Enrollment and Day 2: Conclusion). See, FIG. 2. Subject eligibility was first checked on Day 1 of the PK substudy prior to the start of assessments.
PK substudy: On Day 1 of the PK substudy, the study treatment was required to be taken directly after the pre-dose blood sample. On Day 2 of the PK substudy, study treatment was required to be taken after the collection of the last PK blood sample (24 hours post Day 1 dose).
F3. Pharmacokinetic Endpoints for Macitentan and its Active Metabolite ACT-132577 • The area under the plasma concentration-time curve during one dosing interval (AUCt). • Maximum plasma concentration (Cmax) during a dosing interval. • The time to reach maximum plasma concentration (tmax) during a dosing interval.
(i) Timing for sampling: For the PK assessment, blood samples were drawn at the following time points: • PK substudy Day 1: Immediately before study treatment administration in the morning (pre-dose) and 1 h, 3 h, 5 h, 6 h, 7 h, 8 h, 9 h, 10 h, 12 h, and 14 h post-dose. • PK substudy Day 2: 24 h post-dose.
(iii) Bioanalysis: A validated liquid chromatography coupled to mass spectrometry method was used for determining the concentrations of macitentan and its metabolite ACT-132577 in plasma. The limit of quantification (LOQ) for both analytes was 1 ng/mL.
The measured individual plasma concentrations of macitentan and its metabolite ACT-132577 were used to directly obtain Cmax and tmax. AUCT was calculated according to the linear trapezoidal rule using the measured concentration-time values above the LOQ during one dosing interval. The PK variables were calculated on the basis of the real (actual) blood sampling time points. For mean value calculations, all values below the LOQ (below the limit of quantification (BLQ) values) were set to zero if ≤50% of the values at a given time point were BLQ. If >50% of the values at a given time point were BLQ, no mean value was calculated. Mean concentration-time profiles were generated using these criteria. The individual and mean plasma concentration-time profiles were plotted on a linear scale. The derived PK variables for macitentan and ACT-132577 (AUCT, Cmax, tmax) are listed by patient. Plasma concentrations per time point were summarized using arithmetic mean, minimum, median, maximum, standard deviation (SD), standard error (SE), and two-sided 95% confidence interval of the mean. […] (*For tmax the geometric mean and its 95% confidence interval were not calculated).

patients with PoPH = assay: PORTICO: WHO functional class; assay type: in vivo, human
Procedure: (iii) WHO functional class: WHO FC was evaluated at Screening, Baseline (Visit 2/Randomization), and then every visit until EOT-DB or EOT-OL, whichever came last.
Handling of missing data: For change from baseline to Weeks 4, 8 and 12 in 6MWD and WHO FC, the last available value (including baseline) was carried forward unless the patient died before, or on Day 42, 70, 98 (the upper limit treatment days of Weeks 4, 8 and 12 windows, respectively), in which case the following rules considering worst case were used to replace all the missing values from the week after death up to Week 12: • For 6MWD, worst fixed value was set to 0, • For WHO FC, worst fixed value was set to class IV, • For change from baseline to Week 12 in NT-proBNP, the same imputation rule as for PVR was applied as described herein.
Statistical analysis: The change from baseline to Week 12 in mRAP, mPAP, cardiac index, TPR and SVO2 were analyzed on the FAS (with imputation) using an ANCOVA with factors for treatment group, background PAH-specific therapy at baseline (Yes/No as per IXRS, randomization stratification factor), region (Europe/North America/Latin America as per IXRS, randomization stratification factor) and a covariate for baseline corresponding variable. Other RHC variables are listed only. WHO FC is summarized on the FAS (with imputation) by time point and treatment group using frequency tables. Changes from baseline in WHO FC were dichotomized as worsening (i.e., change >0) versus no change or improvement (i.e., change ≤0). Worsening was analyzed using a logistic regression model (exact) with covariates for treatment group, background PAH-specific therapy at baseline (Yes/No as per IXRS, randomization stratification factor) and region (Europe/North America/Latin America as per IXRS, randomization stratification factor). 6MWD is summarized on the FAS (with imputation) by time point and treatment group using descriptive statistics. Change from baseline to each time point is summarized similarly. Change from baseline in 6MWD (up to Week 12) was analyzed using a mixed-effect model repeated measure (MMRM) with factors for treatment group, time point, treatment by time interaction, background PAH-specific therapy at baseline (Yes/No as per IXRS, randomization stratification factor) and region (Europe/North America/Latin America as per IXRS, randomization stratification factor), and covariates for baseline 6MWD and WHO FC. An unstructured covariance matrix was used to account for the correlation between repeated measurements from the same patient. NT-proBNP is summarized on the FAS (with imputation) by time point and treatment group using descriptive statistics as well as geometric means and CVs. The ratio of Week 12 to baseline NT-proBNP is summarized similarly. The ratio versus baseline in NT-proBNP was log-transformed and analyzed using an ANCOVA with covariates for treatment group, background PAH-specific therapy at baseline (Yes/No as per IXRS, randomization stratification factor), region (Europe/North America/Latin America as per IXRS, randomization stratification factor) and baseline log NT-proBNP.
Macitentan treatment period: Changes from macitentan baseline to each time point in WHO FC, 6MWD, NT-pro BNP and Borg dyspnea index (related to the macitentan treatment period) are summarized for the MTS using descriptive statistics.

SMILES: CCCNS(=O)(=O)Nc1ncnc(OCCOc2ncc(Br)cn2)c1-c1ccc(Br)cc1 [macitentan, N-[5-(4-Bromophenyl)-6-[2-[(5-bromo-2-pyrimidinyl)oxy]ethoxy]-4-pyrimidinyl]-N′-propylsulfamide]
- Plasma exposure in PoPH patients compared with other forms of PAH / other macitentan studies [1]: consistent between PoPH patients and patients with other forms of PAH; also recorded: comparable between patients with PoPH and other forms of PAH; also recorded: consistent with those in other macitentan studies
- Trough plasma concentration, mean±SD ([1]; OL macitentan 10 mg o.d. at least 4 weeks, PoPH patients, n=8): 213.1 ± 86.4 ng/mL
- Cmax ([1]; human, plasma, oral, macitentan 10 mg o.d., PoPH patients, PKS 10 patients, read-out: Cmax, geometric mean (95% confidence interval)): 369 ng/mL
- Tmax ([1]; human, plasma, oral, macitentan 10 mg o.d., PoPH patients, PKS 10 patients, read-out: tmax, median (range)): 6.5 h
- AUC(0-t) ([1]; human, plasma, oral, one dosing interval, macitentan 10 mg o.d., PoPH patients, read-out: AUCT, geometric mean (95% confidence interval)): 6660 ng·h/mL
- WHO FC Class I at Week 12, total (patients with PoPH; FAS with imputation, N=43): 3 (7.0) n (%)
- WHO FC Class II at Week 12, total (patients with PoPH; FAS with imputation, N=43): 27 (62.8) n (%)
- WHO FC Class III at Week 12, total (patients with PoPH; FAS with imputation, N=43): 13 (30.2) n (%)
- WHO FC Class IV at Week 12, total (patients with PoPH; FAS with imputation, N=43): 0 n (%)
- WHO FC Improved, baseline to Week 12 (patients with PoPH; FAS with imputation, N=43): 9 (20.9) n (%)
- WHO FC Not Worsened, baseline to Week 12 (patients with PoPH; FAS with imputation, N=43): 37 (86.0) n (%)
- WHO FC Unchanged, baseline to Week 12 (patients with PoPH; FAS with imputation, N=43): 28 (65.1) n (%)
- WHO FC Worsened, baseline to Week 12 (patients with PoPH; FAS with imputation, N=43): 6 (14.0) n (%)
- WHO FC shift: baseline Class I to Week 12 Class I (patients with PoPH; FAS with imputation, N=43): 1 (2.3) n (%)
- WHO FC shift: baseline Class I to Week 12 Class II (patients with PoPH; FAS with imputation, N=43): 0 n (%)
- WHO FC shift: baseline Class I to Week 12 Class III (patients with PoPH; FAS with imputation, N=43): 0 n (%)
- WHO FC shift: baseline Class I to Week 12 Class IV (patients with PoPH; FAS with imputation, N=43): 0 n (%)
- WHO FC shift: baseline Class II to Week 12 Class I (patients with PoPH; FAS with imputation, N=43): 1 (2.3) n (%)
- WHO FC shift: baseline Class II to Week 12 Class II (patients with PoPH; FAS with imputation, N=43): 20 (46.5) n (%)
- WHO FC shift: baseline Class II to Week 12 Class III (patients with PoPH; FAS with imputation, N=43): 6 (14.0) n (%)
- WHO FC shift: baseline Class II to Week 12 Class IV (patients with PoPH; FAS with imputation, N=43): 0 n (%)
- WHO FC shift: baseline Class III to Week 12 Class I (patients with PoPH; FAS with imputation, N=43): 1 (2.3) n (%)
- WHO FC shift: baseline Class III to Week 12 Class II (patients with PoPH; FAS with imputation, N=43): 7 (16.3) n (%)
- WHO FC shift: baseline Class III to Week 12 Class III (patients with PoPH; FAS with imputation, N=43): 7 (16.3) n (%)
- WHO FC shift: baseline Class III to Week 12 Class IV (patients with PoPH; FAS with imputation, N=43): 0 n (%)
- Patients with no change in WHO FC at Week 12 (patients with PoPH; FAS, macitentan group): 65.1%
- Patients with worsening in WHO FC at Week 12 (patients with PoPH; FAS, macitentan group, 6 patients (4 imputed)): 14.0%
- Patients with improvement in WHO FC at Week 12 (patients with PoPH; FAS, macitentan group, 9 patients): 20.9%
- Patients with worsening in WHO FC at Week 24 (patients with PoPH; MTS without imputation, macitentan in both periods, 2/34): 5.9%
- Patients with no change in WHO FC at Week 24 (patients with PoPH; MTS without imputation, macitentan in both periods, 21/34): 61.8%
- Patients with worsening in WHO FC at Week 12 after macitentan initiation in OL period (patients with PoPH; MTS without imputation, vs macitentan baseline, 3/35): 8.6%
- Patients with no change in WHO FC at Week 12 after macitentan initiation in OL period (patients with PoPH; MTS without imputation, vs macitentan baseline, 24/35): 68.6%
